Laboratory results taken from US6756366B1, “Orally active androgens” (Akzo Nobel N.V., priority 1999, dated 2004).

Experiments:
[1] = t1/2 after incubation with human hepatocytes; assay type: in vitro ADME; conditions: male; cryopreserved human hepatocytes in suspension, 10 nM compound, 37° C., sampled at 0.5, 1 and 3 h, LC-MS/MS
Experimental: (§1) The half-life of a compound as a result of contact with human hepatocytes holds as a reliable indication of metabolic stability. As it is well known that the absorption of this class of steroids is high, this assay provides an in vitro model for oral activity in humans.
(§2) Hepatocytes collected from healthy young (25-45 year) male organ donors were cryo preserved in liquid nitrogen and kept there until use. They were thawed at 37° C. in a waterbath, placed immediately on ice, washed twice in one volume of cold (4° C.) incubation medium [William's medium E (without phenol red) with Glutamax I®, gentamicin 50 μg/ml, insulin 1 μM, hydrocortisone hemisuccinate 10 μM, fetal calf serum 0% (v/v)], counted and the viability checked by Trypan blue exclusion. Cells were incubated as suspensions in 12-wells (non-coated) plates at a nominal density of 0.5×10^6 cells/well in 1.5 ml medium at 37° C. with an air/O2/CO2 mixture (55/40/5). The plates were set on an orbital shaker at approximately 10 rpm.
(§3) The hepatocytes were incubated with 10 nM final concentration of the compound to be tested. The incubations were stopped after 0.5, 1 and 3 h by pipetting the whole incubation mixture into a glass tube and adding one volume of acetone on ice. The acetone was dried under a nitrogen flow at room temperature, the volume adjusted to 1.5 ml and the tubes were centrifuged at 4° C. at 10.000×g for 30 min. The de-proteinized supernatants were collected for LC-MS/MS analysis.

serum LH = assay: LH suppression assay in mature male castrated rat model; assay type: in vivo; conditions: mature male castrated rats, po daily for 4 days in arachis oil suspension, serum LH 3 hours after last oral dose; for ED50: Rattus norvegicus, read-out: ED50 (po) required to suppress serum LH for 50% (±10%)
Experimental: The in vivo potency of several androgens of the invention was determined in a mature male castrated rat model, in comparison with MENT.
In this model serum LH is high (50× fold higher than with intact rats, due to the absence of the negative feedback of testicular testosterone). These rats are po treated for 4 days daily with a given compound of the invention in a suspension fluid of arachisoil. Before dosing and 3 hours after the last oral dose blood is collected via tail vene and in the serum LH is determined. Potency of the androgens (ED50) are expressed as the amount (mg/kg) of androgen which suppresses serum LH for 50% (±10%).
The rat LH Time-Resolved Immuno Fluorometric Assay (TR-IFMA) has been developed in house using home made reagents, a monoclonal catching antibody directed against the β-subunit of human chorion gonadotrophin (hCG, which cross react with rat β-subunit) and a biotin labelled detecting antibody (rabbit polyclonal antibody directed against the alfa-subunit of recombinant rat LH). Recombinant rat LH was prepared according to the methods described by Hakola et al (1997). In this two-site-IFMA, only intact rat LH is determined by a final incubation with streptavidin-europium. The detection in the IFMA is based on fluorescence of the lanthanide europium during a relative long exitation period. The concentration range of rat LH standard is 0.001-10 ng/ml, for optimal accuracy measurements of serum LH serum samples were diluted 8-times with assay buffer [Hakola, K., Boogaart, P. V., Mulders, J., de Leeuw, R., Schoonen, W., Heyst, J. V., Swolfs, A., Casteren, J. V., Huhtaniemi, I., and Kloosterboer, H. J., Recombinant rat luteinizing hormone; production by Chinese hamster ovary cells, purification and functional characterization, Molecular & Cellular Endocrinology 128, 47 (1997)].

human hepatocytes = assay: t1/2 after incubation with human hepatocytes; assay type: in vitro ADME; conditions: cryopreserved human hepatocytes in suspension, 10 nM compound, 37° C., sampled at 0.5, 1 and 3 h, LC-MS/MS
Experimental: as §1, §2, §3

SMILES	melting point [°C]	half-life at 10 nM [1] [min]	ED50 (serum LH) [mg/kg]	also measured
CC[C@@H]1CC2=CCCC[C@@H]2[C@H]2CC[C@]3(C)[C@@H](O)CC[C@H]3[C@H]12	155 to 157	–	–	–
CC[C@@H]1CC2=C(CC[C@@H](O)C2)[C@H]2CC[C@]3(C)[C@@H](O)CC[C@H]3[C@H]12	98 to 100	–	–	–
C=C[C@@H]1CC2=C/C(=N/O)CC[C@@H]2[C@H]2CC[C@]3(C)[C@@H](O)CC[C@H]3[C@@H]21	206 to 224	–	–	–
CC[C@@H]1CC2=CC(=O)CC[C@@H]2[C@H]2CC[C@]3(C)[C@@H](O)CC[C@H]3[C@H]12 [Example 1, (7α,17β)-7-Ethyl-17-hydroxyestr-4-en-3-one]	142.5 to 143.5	48	2.5	–
C=C[C@@H]1CC2=CC(=O)CC[C@@H]2[C@H]2CC[C@]3(C)[C@@H](O)CC[C@H]3[C@@H]21 [Example 4, (7α,17β)-7-Ethenyl-17-hydroxyestr-4-en-3-one]	–	–	2.5	–
C/C=C/[C@@H]1CC2=CC(=O)CC[C@@H]2[C@H]2CC[C@]3(C)[C@@H](O)CC[C@H]3[C@@H]21 [Example 6a, [7α(E),17β]-17-Hydroxy-7-(1-propenyl)estr-4-en-3-one]	–	–	–	t1/2 after incubation with human hepatocytes (human hepatocytes): 30 min
C[C@]12CC[C@H]3[C@@H]([C@H](C4CC4)CC4=CC(=O)CC[C@@H]43)[C@@H]1CC[C@@H]2O [Example 10, (7α,17β)-7-Cyclopropyl-17-hydroxyestr-4-en-3-one]	–	30	–	–
CC[C@@H]1CC2=CC(=O)CC[C@@H]2[C@@H]2[C@@H]1[C@@H]1CC[C@H](O)[C@@]1(C)C[C@@H]2C [Example 11, (7α,11β,17β)-7-Ethyl-17-hydroxy-11-methylestr-4-en-3-one]	–	–	5	–
C=C[C@@H]1CC2=CC(=O)CC[C@@H]2[C@@H]2[C@@H]1[C@@H]1CC[C@H](O)[C@@]1(C)C[C@@H]2C [Example 12, (7α,11β,17β)-7-Ethenyl-17-hydroxy-11-methylestr-4-en-3-one]	–	–	5	–
CC[C@@H]1CC2=CC(=O)CC[C@@H]2[C@H]2CC[C@]3(CC)[C@@H](O)CC[C@H]3[C@H]12 [Example 13, (7α,17β)-7,13-Diethyl-17-hydroxygon-4-en-3-one]	–	48	–	–
C=C[C@@H]1CC2=CC(=O)CC[C@@H]2[C@H]2CC[C@]3(CC)[C@@H](O)CC[C@H]3[C@@H]21 [Example 14, (7α,17β)-7-Ethenyl-13-ethyl-17-hydroxygon-4-en-3-one]	–	20	–	–
C[C@@H]1CC2=CC(=O)CC[C@@H]2[C@H]2CC[C@]3(C)[C@@H](O)CC[C@H]3[C@@H]21 [MENT, 7α-methyl-19-nortestosterone, reference compound]	–	–	–	t1/2 after incubation with human hepatocytes (human hepatocytes): 20 min; ED50 (po) required to suppress serum LH for 50% (±10%) (serum LH): 10 mg/kg
